Measurements reported in patent publication US9775831B2, “Combinations comprising biphenyl derivatives for use in the treatment of HCV” (BRISTOL-MYERS SQUIBB COMPANY, priority 2013, dated 2017).

test system: genotype-1a variant with glutamine 30 changed to glutamate in the NS5A protein; test: HCV replicon cell-based assay, NS5A synergy with BMS-790052; settings: genotype 1a Q→E variant; test compound titrated in combination with NS5A-targeting compound (BMS-790052 fixed at 200 nM)
Description: The NS5A synergistic inhibitory effect of test compounds can be determined using various amounts of an NS5A-targeting compound with titration of a second compound of interest. […] In one embodiment, the HCV genotype strain can be genotype 1a containing a change at amino acid 30 of the NS5A protein consisting of glutamine to glutamate. The test compound can be chosen from compounds listed above or from others present in the literature.

Question: `CCOCC1(CNC(=O)C[C@H](c2ncc(-c3ccc(-c4ccc(-c5cnc([C@@H](CC(=O)NCC6(COCC)CC6)C(C)C)[nH]5)cc4)cc3)[nH]2)C(C)C)CC1` [Example MD-20] was tested. Which “Fold Synergistic (1a-QE)” value did it give?
Answer: >10 Fold

Question: With `C[C@@H]1CN(C(=O)C[C@@H](C)c2ncc(-c3ccc(-c4ccc(-c5cnc([C@H](C)CC(=O)N6C[C@@H](C)O[C@@H](C)C6)[nH]5)cc4)cc3)[nH]2)C[C@H](C)O1` [Example MD-36] as the molecule, how does the “Fold Synergistic (1a-QE)” value read?
Answer: >10 Fold

Question: With `C[C@H](CC(=O)NCC1CC1)c1ncc(-c2ccc(-c3ccc(-c4cnc([C@H](C)CC(=O)NCC5CC5)[nH]4)cc3)cc2)[nH]1` [Example MD-38] as the molecule, how does the “Fold Synergistic (1a-QE)” value read?
Answer: >100 Fold

Question: Which “Fold Synergistic (1a-QE)” value does the source give for `CC(C)[C@H](CC(=O)NCC(C)(C)O)c1ncc(-c2ccc(-c3ccc(-c4cnc([C@@H](CC(=O)NCC(C)(C)O)C(C)C)[nH]4)cc3)cc2)[nH]1` [Example MD-41] here?
Answer: >10 Fold

Question: Which “Fold Synergistic (1a-QE)” value does the source give for `CC(C)(C)CNC(=O)C[C@@H](CCC(F)(F)F)c1ncc(-c2ccc(-c3ccc(-c4cnc([C@H](CCC(F)(F)F)CC(=O)NCC(C)(C)C)[nH]4)cc3)cc2)[nH]1` [Example MD-55] here?
Answer: <10 Fold

Question: How did the “Fold Synergistic (1a-QE)” value turn out when `CC(C)N(C(=O)C[C@@H](CCC(F)(F)F)c1ncc(-c2ccc(-c3ccc(-c4cnc([C@H](CCC(F)(F)F)CC(=O)N(C(C)C)C5CC5)[nH]4)cc3)cc2)[nH]1)C1CC1` [Example MD-56] was run?
Answer: <10 Fold

Question: `CC(C)NC(=O)C[C@@H](CCC(F)(F)F)c1ncc(-c2ccc(-c3ccc(-c4cnc([C@H](CCC(F)(F)F)CC(=O)N(C(C)C)C5CC5)[nH]4)cc3)cc2)[nH]1` [Example MD-57] was tested. Which “Fold Synergistic (1a-QE)” value did it give?
Answer: >10 Fold

Question: For `COC(=O)NN(C(=O)[C@@H]1OC(C)(C)O[C@H]1c1ncc(-c2ccc(-c3ccc(-c4cnc([C@@H]5OC(C)(C)O[C@H]5C(=O)N(NC(=O)OC)C(C)C)[nH]4)cc3)cc2)[nH]1)C(C)C` [MD-8], which “Fold Synergistic (1a-QE)” value is on record?
Answer: <10 Fold

Question: For `CC1(C)O[C@@H](C(N)=O)[C@H](c2ncc(-c3ccc(-c4ccc(-c5coc([C@@H]6OC(C)(C)O[C@H]6C(N)=O)n5)cc4)cc3)[nH]2)O1` [MD-10], which “Fold Synergistic (1a-QE)” value is on record?
Answer: <10 Fold

Question: `COC(=O)NN(C(=O)C[C@@H](C)c1nc(-c2ccc(-c3ccc(-c4c[nH]c([C@H](C)CC(=O)N(NC(=O)OC)C(C)C)n4)cc3)cc2)c[nH]1)C(C)C` [MD-12] was tested. Which “Fold Synergistic (1a-QE)” value did it give?
Answer: >10 Fold

Question: For `CC(C)CNC(=O)[C@@H]1OCO[C@H]1c1ncc(-c2ccc(-c3ccc(-c4cnc([C@@H]5OCO[C@H]5C(=O)NCC(C)C)[nH]4)cc3)cc2)[nH]1` [MD-14], which “Fold Synergistic (1a-QE)” value is on record?
Answer: <10 Fold

Question: With `COC(=O)NN(C(=O)[C@@H]1OCO[C@H]1c1ncc(-c2ccc(-c3ccc(-c4cnc([C@@H]5OCO[C@H]5C(=O)N(NC(=O)OC)C(C)C)[nH]4)cc3)cc2)[nH]1)C(C)C` [MD-17] as the molecule, how does the “Fold Synergistic (1a-QE)” value read?
Answer: <10 Fold

Question: `CC(C)[C@H](CC(=O)NC[C@@H]1CC[C@H]2C[C@@H]1C2(C)C)c1ncc(-c2ccc(-c3ccc(-c4cnc([C@@H](CC(=O)NC[C@@H]5CC[C@H]6C[C@@H]5C6(C)C)C(C)C)[nH]4)cc3)cc2)[nH]1` [MD-21] was tested. Which “Fold Synergistic (1a-QE)” value did it give?
Answer: >100 Fold

Question: How did the “Fold Synergistic (1a-QE)” value turn out when `CC(C)[C@H](CC(=O)NCC12CC3CC(CC(C3)C1)C2)c1ncc(-c2ccc(-c3ccc(-c4cnc([C@@H](CC(=O)NCC56CC7CC(CC(C7)C5)C6)C(C)C)[nH]4)cc3)cc2)[nH]1` [MD-22] was run?
Answer: >100 Fold

Question: Which “Fold Synergistic (1a-QE)” value does the source give for `CC(C)[C@H](CC(=O)NCC1(c2ccccc2)CCCCC1)c1ncc(-c2ccc(-c3ccc(-c4cnc([C@@H](CC(=O)NCC5(c6ccccc6)CCCCC5)C(C)C)[nH]4)cc3)cc2)[nH]1` [MD-23] here?
Answer: >100 Fold

Question: With `CCN(CC)C(=O)CN(C)C(=O)C[C@H](c1ncc(-c2ccc(-c3ccc(-c4cnc([C@@H](CC(=O)N(C)CC(=O)N(CC)CC)C(C)C)[nH]4)cc3)cc2)[nH]1)C(C)C` [MD-24] as the molecule, how does the “Fold Synergistic (1a-QE)” value read?
Answer: >10 Fold

Question: `CC(C)[C@H](CC(=O)N(C)CC(=O)NC(C)(C)C)c1ncc(-c2ccc(-c3ccc(-c4cnc([C@@H](CC(=O)N(C)CC(=O)NC(C)(C)C)C(C)C)[nH]4)cc3)cc2)[nH]1` [MD-25] was tested. Which “Fold Synergistic (1a-QE)” value did it give?
Answer: >10 Fold

Question: `CCCCN(C(=O)C[C@H](c1ncc(-c2ccc(-c3ccc(-c4cnc([C@@H](CC(=O)N(CCCC)C(C)C)C(C)C)[nH]4)cc3)cc2)[nH]1)C(C)C)C(C)C` [MD-26] was tested. Which “Fold Synergistic (1a-QE)” value did it give?
Answer: >10 Fold

Question: For `CC(C)[C@H](CC(=O)N(CCN1CCOC1=O)CC(C)(C)C)c1ncc(-c2ccc(-c3ccc(-c4cnc([C@@H](CC(=O)N(CCN5CCOC5=O)CC(C)(C)C)C(C)C)[nH]4)cc3)cc2)[nH]1` [MD-27], which “Fold Synergistic (1a-QE)” value is on record?
Answer: >10 Fold

Question: How did the “Fold Synergistic (1a-QE)” value turn out when `CC(C)[C@H](CC(=O)NCC(C)(c1ccccc1)c1ccccc1)c1ncc(-c2ccc(-c3ccc(-c4cnc([C@@H](CC(=O)NCC(C)(c5ccccc5)c5ccccc5)C(C)C)[nH]4)cc3)cc2)[nH]1` [MD-28] was run?
Answer: >100 Fold

Question: How did the “Fold Synergistic (1a-QE)” value turn out when `CC(C)[C@H](CC(=O)N1CCN(c2ccccc2)C(=O)C1)c1ncc(-c2ccc(-c3ccc(-c4cnc([C@@H](CC(=O)N5CCN(c6ccccc6)C(=O)C5)C(C)C)[nH]4)cc3)cc2)[nH]1` [MD-29] was run?
Answer: <10 Fold

Question: Which “Fold Synergistic (1a-QE)” value does the source give for `CC(C)[C@H](CC(=O)N(C)CC(=O)N(C)C)c1ncc(-c2ccc(-c3ccc(-c4cnc([C@@H](CC(=O)N(C)CC(=O)N(C)C)C(C)C)[nH]4)cc3)cc2)[nH]1` [MD-30] here?
Answer: <10 Fold

Question: For `CC(C)[C@H](CC(=O)NC1(C#N)CC1)c1ncc(-c2ccc(-c3ccc(-c4cnc([C@@H](CC(=O)NC5(C#N)CC5)C(C)C)[nH]4)cc3)cc2)[nH]1` [MD-31], which “Fold Synergistic (1a-QE)” value is on record?
Answer: <10 Fold

Question: With `CC(C)[C@H](CC(=O)NCC1(c2ccc(F)cc2)CCCC1)c1ncc(-c2ccc(-c3ccc(-c4cnc([C@@H](CC(=O)NCC5(c6ccc(F)cc6)CCCC5)C(C)C)[nH]4)cc3)cc2)[nH]1` [MD-32] as the molecule, how does the “Fold Synergistic (1a-QE)” value read?
Answer: >100 Fold

Question: With `CC(C)[C@H](CC(=O)NC1(C#N)CC1)c1ncc(-c2ccc(-c3ccc(-c4cnc([C@@H](CC(=O)NC5(C(N)=O)CC5)C(C)C)[nH]4)cc3)cc2)[nH]1` [MD-33] as the molecule, how does the “Fold Synergistic (1a-QE)” value read?
Answer: <10 Fold

Question: `CCO[C@H](CC(=O)NCC(C)C)C(=O)N[C@H](c1ncc(-c2ccc(-c3ccc(-c4cnc([C@@H](NC(=O)[C@@H](CC(=O)NCC(C)C)OCC)C(C)(C)C)[nH]4)cc3)cc2)[nH]1)C(C)(C)C` [MD-34] was tested. Which “Fold Synergistic (1a-QE)” value did it give?
Answer: >100 Fold

Question: Which “Fold Synergistic (1a-QE)” value does the source give for `CC(C)CNC(=O)C[C@H](c1ncc(-c2ccc(-c3ccc(-c4cnc([C@@H](CC(=O)NCC(C)C)C(C)C)[nH]4)cc3)cc2)[nH]1)C(C)C` [MD-35] here?
Answer: >10 Fold

Question: `C[C@H](CC(=O)N1CCOCC1)c1ncc(-c2ccc(-c3ccc(-c4cnc([C@H](C)CC(=O)N5CCOCC5)[nH]4)cc3)cc2)[nH]1` [MD-37] was tested. Which “Fold Synergistic (1a-QE)” value did it give?
Answer: >10 Fold

Question: With `C[C@H](CC(=O)NC1CCOCC1)c1ncc(-c2ccc(-c3ccc(-c4cnc([C@H](C)CC(=O)NC5CCOCC5)[nH]4)cc3)cc2)[nH]1` [MD-39] as the molecule, how does the “Fold Synergistic (1a-QE)” value read?
Answer: >10 Fold

Question: For `CC(C)[C@H](CC(=O)NCC(C)(C)CO)c1ncc(-c2ccc(-c3ccc(-c4cnc([C@@H](CC(=O)NCC(C)(C)CO)C(C)C)[nH]4)cc3)cc2)[nH]1` [MD-42], which “Fold Synergistic (1a-QE)” value is on record?
Answer: >10 Fold

Question: `CCCN(CC1CC1)C(=O)C[C@H](c1ncc(-c2ccc(-c3ccc(-c4cnc([C@@H](CC(=O)N(CCC)CC5CC5)C(C)C)[nH]4)cc3)cc2)[nH]1)C(C)C` [MD-44] was tested. Which “Fold Synergistic (1a-QE)” value did it give?
Answer: >10 Fold

Question: `CCC(CC)CNC(=O)C[C@H](c1ncc(-c2ccc(-c3ccc(-c4cnc([C@@H](CC(=O)NCC(CC)CC)C(C)C)[nH]4)cc3)cc2)[nH]1)C(C)C` [MD-45] was tested. Which “Fold Synergistic (1a-QE)” value did it give?
Answer: >100 Fold

Question: With `CC(C)[C@H](CC(=O)NCC(C)(C)c1ccccc1)c1ncc(-c2ccc(-c3ccc(-c4cnc([C@@H](CC(=O)NCC(C)(C)c5ccccc5)C(C)C)[nH]4)cc3)cc2)[nH]1` [MD-47] as the molecule, how does the “Fold Synergistic (1a-QE)” value read?
Answer: >100 Fold

Question: With `CC(C)NC(=O)CN(C)C(=O)C[C@H](c1ncc(-c2ccc(-c3ccc(-c4cnc([C@@H](CC(=O)N(C)CC(=O)NC(C)C)C(C)C)[nH]4)cc3)cc2)[nH]1)C(C)C` [MD-48] as the molecule, how does the “Fold Synergistic (1a-QE)” value read?
Answer: <10 Fold

Question: How did the “Fold Synergistic (1a-QE)” value turn out when `CC(C)[C@H](CC(=O)N(C)CC(C)(C)C)c1ncc(-c2ccc(-c3ccc(-c4cnc([C@@H](CC(=O)N(C)CC(C)(C)C)C(C)C)[nH]4)cc3)cc2)[nH]1` [MD-49] was run?
Answer: >10 Fold

Question: Which “Fold Synergistic (1a-QE)” value does the source give for `CC(C)[C@H](CC(=O)N(C)C1CCOCC1)c1ncc(-c2ccc(-c3ccc(-c4cnc([C@@H](CC(=O)N(C)C5CCOCC5)C(C)C)[nH]4)cc3)cc2)[nH]1` [MD-50] here?
Answer: <10 Fold

Question: For `CC(C)[C@H](CC(=O)NCC(C)(C)C(N)=O)c1ncc(-c2ccc(-c3ccc(-c4cnc([C@@H](CC(=O)NCC(C)(C)C(N)=O)C(C)C)[nH]4)cc3)cc2)[nH]1` [MD-51], which “Fold Synergistic (1a-QE)” value is on record?
Answer: >10 Fold

Question: Which “Fold Synergistic (1a-QE)” value does the source give for `CC(C)[C@H](CC(=O)N(Cc1ccccc1)C(C)C)c1ncc(-c2ccc(-c3ccc(-c4cnc([C@@H](CC(=O)N(Cc5ccccc5)C(C)C)C(C)C)[nH]4)cc3)cc2)[nH]1` [MD-52] here?
Answer: >100 Fold

Question: Which “Fold Synergistic (1a-QE)” value does the source give for `CC(C)[C@H](CC(=O)N1CCN(C)C(=O)C1)c1ncc(-c2ccc(-c3ccc(-c4cnc([C@@H](CC(=O)N5CCN(C)C(=O)C5)C(C)C)[nH]4)cc3)cc2)[nH]1` [MD-53] here?
Answer: <10 Fold

Question: Which “Fold Synergistic (1a-QE)” value does the source give for `CC(C)[C@H](CC(=O)NCC1(O)CCC1)c1ncc(-c2ccc(-c3ccc(-c4cnc([C@@H](CC(=O)NCC5(O)CCC5)C(C)C)[nH]4)cc3)cc2)[nH]1` [MD-54] here?
Answer: >10 Fold

Question: How did the “Fold Synergistic (1a-QE)” value turn out when `CCOC(=O)N1CCN(C(=O)C[C@@H](CCC(F)(F)F)c2ncc(-c3ccc(-c4ccc(-c5cnc([C@H](CCC(F)(F)F)CC(=O)N6CCN(C(=O)OCC)CC6)[nH]5)cc4)cc3)[nH]2)CC1` [MD-58] was run?
Answer: >10 Fold

Question: `O=C(C[C@@H](CCC(F)(F)F)c1ncc(-c2ccc(-c3ccc(-c4cnc([C@H](CCC(F)(F)F)CC(=O)NC5CCOCC5)[nH]4)cc3)cc2)[nH]1)NC1CCOCC1` [MD-61] was tested. Which “Fold Synergistic (1a-QE)” value did it give?
Answer: <10 Fold
